Values quoted from earlier work as cited in US20140100537A1 (MEDICURE INTERNATIONAL INC., priority 2009, published 2014).

Tested on: platelet aggregation
Details: typical dosage for tirofiban

## CCCCS(=O)(=O)NC(Cc1ccc(OCCCCC2CCNCC2)cc1)C(=O)O.Cl (stereo not shown) [tirofiban]
  platelet inhibition provided by typical dosage: > 90%
